“And” between values parts separate entries of the source, which are not always exact repeats. Equal values may be shown once. Read-outs that look alike come from different tables or passages of the source.
Tests used:
GST-hCAR-LBD = target: T1, GST-hCAR-LBD (Homo sapiens, UniProt Q14994); assay: CoAct binding inverse agonist assay (LanthaScreen TR-FRET, fluorescent PGC-1α coactivator recruitment/repression); format: biochemical; conditions: for inhibition at 70 µM: read-out: % Inhibition (70 μM); for fold increase of IC50 (decrease of activity) relative to lead chemical 1 (CINPA1) / fold increase of CAR inverse agonistic activity (potency) over lead chemical 1 (CINPA1): relative to chemical 1
T1 construct: purchased Life Technologies (Carlsbad, Calif.) or Invitrogen (Carlsbad, Calif.)
T1 sequence (Q14994 109-352 limits assumed): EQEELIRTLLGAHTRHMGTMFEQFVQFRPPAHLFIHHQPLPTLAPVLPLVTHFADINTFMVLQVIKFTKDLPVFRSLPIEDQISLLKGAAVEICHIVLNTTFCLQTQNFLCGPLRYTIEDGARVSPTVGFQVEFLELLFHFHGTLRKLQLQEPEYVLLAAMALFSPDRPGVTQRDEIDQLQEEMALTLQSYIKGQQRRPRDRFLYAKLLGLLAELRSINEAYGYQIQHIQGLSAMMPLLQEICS
Description: The effect of putative CAR ligands on the recruitment or repression of PGC-1α binding to hCAR was evaluated by using a LanthaScreen TR-FRET assay according to the manufacturer's instructions. […] The final DMSO concentration was 0.7% in all assay wells. […] The % Inhibition values were then plotted for individual chemicals. When applicable, the graphic software GraphPad Prism 5.04 (GraphPad Software, La Jolla, Calif., USA) was used to fit the data into a one-site competitive-binding equation to derive IC50 values. […] The assay plates were then briefly spun down and incubated for 1 hour at room temperature (25° C.). […] The final DMSO concentration was 0.7% in all assay wells. […] The % Inhibition values were then plotted for individual chemicals. When applicable, the graphic software GraphPad Prism 5.04 (GraphPad Software, La Jolla, Calif., USA) was used to fit the data into a one-site competitive-binding equation to derive IC50 values.

hCAR1 = target: T2, hCAR1 (Homo sapiens, UniProt Q14994); assay: Cell-based inverse agonist assay (CYP2B6-luciferase reporter in HepG2 cells transfected with hCAR1)
T2 construct: expressed in transfected cells; host or cells: HepG2 (transient transfection)
T2 sequence (Q14994 1-348 isoform Q14994-2): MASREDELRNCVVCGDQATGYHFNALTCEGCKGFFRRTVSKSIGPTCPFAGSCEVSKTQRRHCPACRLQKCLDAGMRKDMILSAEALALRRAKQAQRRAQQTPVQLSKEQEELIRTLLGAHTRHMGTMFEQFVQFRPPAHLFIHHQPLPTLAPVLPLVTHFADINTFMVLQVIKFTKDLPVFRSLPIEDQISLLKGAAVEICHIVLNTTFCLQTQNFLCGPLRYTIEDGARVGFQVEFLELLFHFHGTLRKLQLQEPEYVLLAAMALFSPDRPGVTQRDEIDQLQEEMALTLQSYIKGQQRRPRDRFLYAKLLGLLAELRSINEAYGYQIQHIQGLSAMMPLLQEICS
Description: HepG2 cells grown in flasks were transfected with Flag-hCAR1 and CYP2B6-luciferase reporter at a 1:3 ratio with Fugene HD (Promega) and incubated for 24 h. Cells were trypsinized and plated in 384-well plates (CulturPlate-384, PerkinElmer) at 5000 cells/well for the primary or secondary screening assays. Cells were treated with chemicals transferred by using a pintool 24 h prior to measuring reporter luciferase activity with SteadyLite firefly luciferase reagent and an EnVision plate reader (PerkinElmer). […] PXR activity was measured in HepG2 cells stably transfected with hPXR and CYP3A4-luciferase reporter (previously described as PXR Clonel cells, see Li, G., et al. (2012) Tox. Appl. Pharm. 258, 268-274; and Lin, W., et al. (2008) J. Biol. Chem. 283, 30650-30657). […] The luminescence signal was detected by using an Envision plate reader (PerkinElmer) and used to calculate the percentage of PXR activation. […] A flowchart of our screening strategy is illustrated in FIG. 1A. HepG2 cells were transiently transfected with pcDNA-hCAR1 and CYP2B6-luciferase plasmids and treated with varying concentrations of the test compounds in 384-well plates for 24 h, and CAR-mediated luciferase activity was measured. Twenty-five hits, defined as those displaying dose-responsive inhibitory effect on the constitutively active hCAR1, were selected and tested in various secondary screening assays. CINPA1 (FIG. 1B) was selected based on its potent inhibitory effect on hCAR1 and lack of detectable agonistic activity against PXR.

[1] = 70 μM compound, 42 μM clotrimazole = 100%, DMSO = 0%
[2] = read-out: IC50 (CAR inverse agonistic activity)

SMILES	IC50 (GST-hCAR-LBD; [2])	IC50 (GST-hCAR-LBD; Table 4, read-out: IC50) [nM]	further results
CCNS(=O)(=O)Nc1ccc2c(c1)N(C(=O)CN(CC)CC)c1ccccc1CC2 [Compound 9]	19100 nM		inhibition at 70 µM (GST-hCAR-LBD; [1]): 92%; IC50 (hCAR1): 105900 nM; % Inhibition (56 μM) (hCAR1; 56 µM): 4.757%
CCNCC(=O)N1c2ccccc2CCc2ccc(NC(=O)OCC)cc21 [Compound 71]		28000	% Inhibition (70 μM) (GST-hCAR-LBD; [1]): 77.6%
O=C(Nc1ccc2c(c1)N(C(=O)Cn1cccc1)c1ccccc1CC2)OC1CCCC1 [Compound 43, cyclopentyl (5-(2-(1H-pyrrol-1-yl)acetyl)-10,11-dihydro-5H-dibenzo[b,f]azepin-3-yl)carbamate]	14 nM		
CCOC(=O)Nc1ccc2c(c1)N(C(=O)CN1CCN(C)CC1)c1ccccc1CC2 [compound 81]	38800 nM		fold increase of IC50 (decrease of activity) relative to lead chemical 1 (CINPA1) (GST-hCAR-LBD): 56 fold
CC(C)OC(=O)Nc1ccc2c(c1)N(C(=O)c1cccs1)c1ccccc1CC2 [Compound 64]		12	
CC(C)(C)OC(=O)Nc1ccc2c(c1)N(C(=O)CN1CCCCC1)c1ccccc1CC2 [Compound 38, tert-butyl (5-(2-(piperidin-1-yl)acetyl)-10,11-dihydro-5H-dibenzo[b,f]azepin-3-yl)carbamate]	220 nM		
O=C(Nc1ccc2c(c1)N(C(=O)Cc1ccco1)c1ccccc1CC2)OC1CCCCC1 [Compound 67]		31	
CCOC(=O)Nc1ccc2c(c1)N(C(=O)CN1CCCCC1)c1ccccc1CC2 [Compound 18, ethyl (5-(2-(piperidin-1-yl)acetyl)-10,11-dihydro-5H-dibenzo[b,f]azepin-3-yl)carbamate]	620 nM		inhibition at 70 µM (GST-hCAR-LBD; [1]): 119%
CCOC(=O)Nc1ccc2c(c1)N(C(=O)COC(C)(C)C)c1ccccc1CC2 [Compound 19, ethyl (5-(2-(tert-butoxy)acetyl)-10,11-dihydro-5H-dibenzo[b,f]azepin-3-yl)carbamate]	71 nM		inhibition at 70 µM (GST-hCAR-LBD; [1]): 120%; fold increase of CAR inverse agonistic activity (potency) over lead chemical 1 (CINPA1) (GST-hCAR-LBD): 9.7 fold
CC(C)OC(=O)Nc1ccc2c(c1)N(C(=O)Cc1cccs1)c1ccccc1CC2 [Compound 62]		21	
CCOC(=O)Nc1ccc2c(c1)N(C(=O)CN1CCCC1)c1ccccc1CC2 [Compound 13, ethyl (5-(2-(pyrrolidin-1-yl)acetyl)-10,11-dihydro-5H-dibenzo[b,f]azepin-3-yl)carbamate]	1580 nM	1580	inhibition at 70 µM (GST-hCAR-LBD; [1]): 115%; IC50 (GST-hCAR-LBD; quoted in SAR text in nM, read-out: IC50 (CAR inverse agonistic activity)): 1580 nM; fold increase of IC50 (decrease of activity) relative to lead chemical 1 (CINPA1) (GST-hCAR-LBD): more than 2 fold
CCNCC(=O)N1c2ccccc2CCc2ccc(NC(=O)OCC)cc21 [Compound 24, ethyl (5-(ethylglycyl)-10,11-dihydro-5H-dibenzo[b,f]azepin-3-yl)carbamate]		24500	inhibition at 70 µM (GST-hCAR-LBD; [1]): 88.4%; fold increase of IC50 (decrease of activity) relative to lead chemical 1 (CINPA1) (GST-hCAR-LBD): over 35 fold
CCN(CC)C(=O)N1c2ccccc2CCc2ccc(NC(=O)OC(C)C)cc21 [Compound 54]		19	
CCOC(=O)Nc1ccc2c(c1)N(C(=O)Cn1ccnc1)c1ccccc1CC2 [Compound 17, ethyl (5-(2-(1H-imidazol-1-yl)acetyl)-10,11-dihydro-5H-dibenzo[b,f]azepin-3-yl)carbamate]	6890 nM		inhibition at 70 µM (GST-hCAR-LBD; [1]): 101%; fold IC50 relative to chemical 16 (GST-hCAR-LBD; relative to chemical 16): 186 fold
O=C(Nc1ccc2c(c1)N(C(=O)c1cccs1)c1ccccc1CC2)OC1CCCCC1 [Compound 68]		19	
O=C(Nc1ccc2c(c1)N(C(=O)OC1CCCC1)c1ccccc1CC2)OC1CCCCC1 [Compound 60]		17	
CCN(CC)CC(=O)N1c2ccccc2CCc2ccc(NC(=O)C(C)(C)C)cc21 [Compound 4, N-(5-(diethylglycyl)-10,11-dihydro-5H-dibenzo[b,f]azepin-3-yl)pivalamide]	1030 nM		inhibition at 70 µM (GST-hCAR-LBD; [1]): 113%

SMILES	IC50 (GST-hCAR-LBD; [2])	IC50 (GST-hCAR-LBD; Table 4, read-out: IC50) [nM]	further results
CC(C)OC(=O)Nc1ccc2c(c1)N(C(=O)COCC(C)(C)C)c1ccccc1CC2 [Compound 32, isopropyl (5-(2-(neopentyloxy)acetyl)-10,11-dihydro-5H-dibenzo[b,f]azepin-3-yl)carbamate]	21 nM		
CCOC(=O)Nc1ccc2c(c1)N(C(=O)CN(CC)CC)c1ccccc1CC2 [Compound 70]		620	% Inhibition (70 μM) (GST-hCAR-LBD; [1]): 104.8%
O=C(Nc1ccc2c(c1)N(C(=O)Cn1cccc1)c1ccccc1CC2)N1CCCC1 [Compound 45]		280	
CCOC(=O)Nc1ccc2c(c1)N(C(=O)CN1CCOCC1)c1ccccc1CC2 [compound 80]	240 nM and 235 nM		fold increase of CAR inverse agonistic activity (potency) over lead chemical 1 (CINPA1) (GST-hCAR-LBD): about 3 fold
CCOC(=O)Nc1ccc2c(c1)N(C(=O)CN1[C@H]3CC[C@@H]1CC3)c1ccccc1CC2 [Compound 20, ethyl (5-(2-((1s,4s)-7-azabicyclo[2.2.1]heptan-7-yl)acetyl)-10,11-dihydro-5H-dibenzo[b,f]azepin-3-yl)carbamate]			inhibition at 70 µM (GST-hCAR-LBD; [1]): 118%
CCOC(=O)Nc1ccc2c(c1)N(C(=O)CNC(C)(C)C)c1ccccc1CC2 [compound 83]	3630 nM		fold increase of IC50 (decrease of activity) relative to lead chemical 1 (CINPA1) (GST-hCAR-LBD): 5 fold
O=C(Nc1ccc2c(c1)N(C(=O)Cn1cccc1)c1ccccc1CC2)OC1CCCCC1 [Compound 44, cyclohexyl (5-(2-(1H-pyrrol-1-yl)acetyl)-10,11-dihydro-5H-dibenzo[b,f]azepin-3-yl)carbamate]	12 nM		fold increase of CAR inverse agonistic activity (potency) over lead chemical 1 (CINPA1) (GST-hCAR-LBD): approximately 59 fold
CCOC(=O)Nc1ccc2c(c1)N(C(=O)CCN1CCCC1)c1ccccc1CC2 [Compound 23]	3180 nM		inhibition at 70 µM (GST-hCAR-LBD): 118%
CC(C)OC(=O)Nc1ccc2c(c1)N(C(=O)CCN(C)C)c1ccccc1CC2 [compound 89]	1790 nM		fold increase of potency compared to chemical 86 (GST-hCAR-LBD; relative to chemical 86): about 3 fold
CCNC(=O)Nc1ccc2c(c1)N(C(=O)CN(CC)CC)c1ccccc1CC2 [Compound 5, 1-(5-(diethylglycyl)-10,11-dihydro-5H-dibenzo[b,f]azepin-3-yl)-3-ethylurea]	14400 nM		inhibition at 70 µM (GST-hCAR-LBD; [1]): 94.9%
CC(C)OC(=O)Nc1ccc2c(c1)N(C(=O)OC1CCCC1)c1ccccc1CC2 [Compound 56]		16	
CC(C)OC(=O)Nc1ccc2c(c1)N(C(=O)n1cccc1)c1ccccc1CC2 [Compound 55]		18	
O=C(Nc1ccc2c(c1)N(C(=O)Cc1cccs1)c1ccccc1CC2)OC1CCCCC1 [Compound 66]		26	
O=C(Nc1ccc2c(c1)N(C(=O)Cn1cccc1)c1ccccc1CC2)N1CCOCC1 [Compound 48]		370	
O=C(Nc1ccc2c(c1)N(C(=O)Cn1cccc1)c1ccccc1CC2)OC1CCC1 [Compound 42, cyclobutyl (5-(2-(1H-pyrrol-1-yl)acetyl)-10,11-dihydro-5H-dibenzo[b,f]azepin-3-yl)carbamate]	20 nM		
CC(C)OC(=O)Nc1ccc2c(c1)N(C(=O)COC1CCC1)c1ccccc1CC2 [Compound 34, isopropyl (5-(2-cyclobutoxyacetyl)-10,11-dihydro-5H-dibenzo[b,f]azepin-3-yl)carbamate]	38 nM		
CCCN(CCC)CC(=O)N1c2ccccc2CCc2ccc(NC(=O)OCC)cc21 [Compound 11, ethyl (5-(dipropylglycyl)-10,11-dihydro-5H-dibenzo[b,f]azepin-3-yl)carbamate]	210 nM		inhibition at 70 µM (GST-hCAR-LBD; [1]): 113%; fold increase of CAR inverse agonistic activity (potency) over lead chemical 1 (CINPA1) (GST-hCAR-LBD): 3 fold

Reference: patent publication US9908890B2, “Selective inhibitors of constitutive androstane receptor” (ST. JUDE CHILDREN'S RESEARCH HOSPITAL, priority 2014, dated 2018)
